From patent publication US6500842B1, “8-hydroxy-7-substituted quinolines as anti-viral agents” (Pharmacia & Upjohn Company, priority 1996, dated 2002)
Values joined by “and” are separate entries in the source; they are usually repeats but may differ in a detail not shown here. Equal entries are not always repeated. Where two headings read alike, the source gives them in different places.

Biological target: T1, HCMV polymerase (Human cytomegalovirus, UniProt P08546)
T1 construct: made in house; host or cells: recombinant baculovirus-infected SF-9 cells
T1 sequence (P08546 whole entry): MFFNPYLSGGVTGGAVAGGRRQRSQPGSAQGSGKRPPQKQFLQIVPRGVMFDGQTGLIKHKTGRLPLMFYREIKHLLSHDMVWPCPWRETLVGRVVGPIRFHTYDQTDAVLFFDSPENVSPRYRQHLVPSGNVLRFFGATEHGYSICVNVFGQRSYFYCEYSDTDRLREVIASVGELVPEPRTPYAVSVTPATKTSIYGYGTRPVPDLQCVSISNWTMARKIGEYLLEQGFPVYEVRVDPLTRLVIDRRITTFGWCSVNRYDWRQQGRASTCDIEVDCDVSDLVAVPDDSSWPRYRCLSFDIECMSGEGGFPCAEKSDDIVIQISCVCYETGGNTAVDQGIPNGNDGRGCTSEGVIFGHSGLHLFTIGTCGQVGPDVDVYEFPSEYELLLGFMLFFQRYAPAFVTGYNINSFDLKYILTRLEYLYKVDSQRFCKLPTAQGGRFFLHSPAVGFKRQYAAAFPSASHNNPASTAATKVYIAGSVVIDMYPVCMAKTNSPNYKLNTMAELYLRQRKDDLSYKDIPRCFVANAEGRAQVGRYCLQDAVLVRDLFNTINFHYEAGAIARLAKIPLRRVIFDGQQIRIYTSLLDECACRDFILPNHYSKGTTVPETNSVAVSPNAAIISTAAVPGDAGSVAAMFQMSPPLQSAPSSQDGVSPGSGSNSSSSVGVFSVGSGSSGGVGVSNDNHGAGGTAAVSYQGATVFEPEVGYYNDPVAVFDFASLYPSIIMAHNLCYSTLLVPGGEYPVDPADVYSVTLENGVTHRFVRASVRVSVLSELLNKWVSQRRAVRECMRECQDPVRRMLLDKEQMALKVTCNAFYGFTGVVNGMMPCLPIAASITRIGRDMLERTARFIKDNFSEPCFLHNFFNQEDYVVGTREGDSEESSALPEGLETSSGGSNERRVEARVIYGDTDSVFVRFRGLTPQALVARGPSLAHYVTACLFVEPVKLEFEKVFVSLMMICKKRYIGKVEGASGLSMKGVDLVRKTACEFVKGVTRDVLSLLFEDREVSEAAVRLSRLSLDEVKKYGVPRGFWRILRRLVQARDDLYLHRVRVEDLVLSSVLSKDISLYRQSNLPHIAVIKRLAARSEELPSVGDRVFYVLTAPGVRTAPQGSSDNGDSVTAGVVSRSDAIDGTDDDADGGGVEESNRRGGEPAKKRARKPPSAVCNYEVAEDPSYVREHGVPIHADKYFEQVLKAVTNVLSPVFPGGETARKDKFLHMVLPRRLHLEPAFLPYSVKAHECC
Assay: HCMV polymerase assay (scintillation proximity assay)
Type: biochemical
Method: The HCMV polymerase assay is performed using a scintillation proximity assay (SPA) as described in several references, such as N. D. Cook, et al., Pharmaceutical Manufacturing International, pages 49-53 (1992); K. Takeuchi, Laboratory Practice, September issue (1992); U.S. Pat. No. 4,568,649 (1986); which are incorporated by reference herein. Reactions are performed in 96-well plates. The assay is conducted in 100 μl volume with 5.4 mM HEPES (pH 7.5), 11.7 mM KCl, 4.5 mM MgCl2, 0.36 mg/ml BSA, and 90 nM ^3H-dTTP. Assays are run with and without CHAPS, (3-[(3-Cholamidopropyl)-dimethylammonio]-1-propane-sulfonate) at a final concentration of 2 mM. HCMV is diluted in enzyme dilution buffer containing 50% glycerol, 250 mM NaCl, 10 mM HEPES (pH 7.5), 100 pg/ml BSA, and 0.01% sodium azide. The HCMV polymerase, which is expressed in recombinant baculovirus-infected SF-9 cells and purified according to literature procedures, is added at 10% (or 10 μl) of the final reaction volume, i.e., 100 μl. Compounds are diluted in 50% DMSO and 10 μl are added to each well. Control wells contain an equivalent concentration of DMSO. Unless noted otherwise, reactions are initiated via the addition of 6 nM biotinylated poly(dA)-oligo(dT) template/primer to reaction mixtures containing the enzyme, substrate, and compounds of interest. Plates are incubated in a 25° C. of 37° C. H2O bath and terminated via the addition of 40 μl/reaction of 0.5 M EDTA (pH 8) per well. Reactions are terminated within the time-frame during which substrate incorporation is linear and varied depending upon the enzyme and conditions used, i.e., 30 min. for HCMV polymerase. Ten μl of streptavidin-SPA beads (20 mg/ml in PBS/10% glycerol) are added following termination of the reaction. Plates are incubated 10 min. at 37° C., then equilibrated to room temperature, and counted on a Packard Topcount. Linear regressions are performed and IC50's are calculated using computer software. Results of the testing of compounds of the present invention in this assay are shown in Tables 1, 2, 5, 9, 10, 11, 13 (except for the last compound which was tested under modified conditions) and 14 below.

[1] = pol type CMV, Table 1, read-out: CMV pol Assay IC50
[2] = Table 9, read-out: CMV pol Assay- IC50
[3] = Table 10, CMV pol Assay, read-out: IC50
[4] = Table 11, read-out: CMV pol Assay IC50
[5] = pol type CMV, Table 2, read-out: IC50

SMILES | IC50 [2] | IC50 [3] | other results
O=C(NCc1ccc(Cl)cc1)c1ccc2cccnc2c1O [Example 1, N-[(4-Chlorophenyl)methyl]-8-hydroxy-7-quinolinecarboxamide] | – | – | IC50 [1]: 10.2 µM
O=C(NCc1c(Cl)cccc1Oc1ccccc1)c1ccc2cccnc2c1O | 3.1 µM | – | –
N#Cc1ccccc1NC(=O)c1ccc2cccnc2c1O | – | > 50 µM | –
CC1CCC(NC(=O)c2ccc3cccnc3c2O)CC1 (centres unmarked) | 23.3 µM | – | –
O=C(Nc1nnc(N[C@@H](Cc2c[nH]c3ccccc23)C(=O)O)s1)c1ccc2cccnc2c1O | – | – | IC50 [4]: 8.5 µM
CCCCCCCCNC(=O)c1ccc2cccnc2c1O | 5.6 µM | – | –
O=C(Nc1ccc([N+](=O)[O-])cc1Cl)c1ccc2cccnc2c1O | – | 3.3 µM | –
O=C(Nc1nnc(-c2ccc(Cl)cc2)s1)c1ccc2cccnc2c1O [Example 14, N-[5-(4-Chlorophenyl)-1,3,4-thiadiazol-2-yl]-8-hydroxy-7-quinolinecarboxamide] | – | – | IC50 [1]: 23.4 µM
O=C(Nc1ccccc1I)c1ccc2cccnc2c1O | – | 12.5 µM | –
O=C(Nc1ccc(Br)cc1)c1ccc2cccnc2c1O | – | 29.7 µM | –
O=C(Nc1ccc(Oc2ccccc2)cc1)c1ccc2cccnc2c1O | – | 6.9 µM | –
O=C(NC1=NC(=O)C(c2cccc([N+](=O)[O-])c2)S1)c1ccc2cccnc2c1O (centres unmarked) | – | – | IC50 (Table 13, read-out: IC50): 5.2 µM
CSCC[C@H](Nc1nnc(NC(=O)c2ccc3cccnc3c2O)s1)C(=O)OC(C)(C)C | – | – | IC50 [4]: 26.6 µM
Cc1cccc(CNC(=O)c2ccc3cccnc3c2O)c1 | 22.6 µM | – | –
O=C(NCCc1ccc(F)cc1)c1ccc2cccnc2c1O | – | – | inhibition at 25 µM (Table 14, 25 uM): 42%
O=C(Nc1ccc(CO)cc1)c1ccc2cccnc2c1O | – | 3.7 µM | –
O=C(NCc1ccc2c(c1)OCO2)c1ccc2cccnc2c1O | – | – | IC50 (Table 14, read-out: IC50): 26 µM
Cc1ccc(F)cc1NC(=O)c1ccc2cccnc2c1O [drawing 222] | – | 14.7 µM | –
O=C(NCc1cccc2ccccc12)c1ccc2cccnc2c1O | 3.7 µM | – | –
O=C(Nc1ccccc1Cl)c1ccc2cccnc2c1O | – | 9.4 µM | –
O=C(Nc1ccc(Cl)c(Cl)c1)c1ccc2cccnc2c1O | – | 32.7 µM | –

SMILES | IC50 [2] | IC50 [3] | other results
O=C(Nc1ccc(F)cc1F)c1ccc2cccnc2c1O | – | 26.8 µM | –
O=C(NCc1ccc(Cl)cc1)c1ccc2cccnc2c1O [drawing 169] | 8.1 µM | – | –
O=C(Nc1ccc(Oc2ccc([N+](=O)[O-])cc2)cc1)c1ccc2cccnc2c1O | – | 3.9 µM | –
Cc1ccc2c(Cl)cc(S(=O)(=O)NCc3ccc(F)cc3)c(O)c2n1 [Example 30] | – | – | % Inhib (Conc 1.00e−004 M, Table 2): 97%; % Inhib (Conc 1.30e−005 M, Table 2): 73.4%; % Inhib (Conc 2.50e−005 M, Table 2): 87.5%; % Inhib (Conc 3.13e−006 M, Table 2): 42.6%; % Inhib (Conc 5.00e−005 M, Table 2): 95.4%; % Inhib (Conc 6.25e−006 M, Table 2): 59.9%; IC50 [5]: 4.3 µM
Cc1ccc2c(Cl)cc(S(=O)(=O)NCc3cccc4ccccc34)c(O)c2n1 [Example 31, 5-Chloro-8-hydroxy-2-methyl-N-(1-naphthalenylmethyl)-7-quinolinesulfonamide] | – | – | % Inhib (Conc 1.00e−004 M, Table 2): 97.3%; % Inhib (Conc 1.00e−005 M, Table 2): 88.2%; % Inhib (Conc 1.25e−006 M, Table 2): 22.7%; % Inhib (Conc 1.30e−005 M, Table 2): 97.3%; % Inhib (Conc 2.50e−005 M, Table 2): 97.8%; % Inhib (Conc 2.50e−006 M, Table 2): 38.5%; % Inhib (Conc 3.13e−006 M, Table 2): 82.9%; % Inhib (Conc 3.13e−007 M, Table 2): −7.9%; % Inhib (Conc 5.00e−005 M, Table 2): 97.8%; % Inhib (Conc 5.00e−006 M, Table 2): 55%; % Inhib (Conc 6.25e−006 M, Table 2): 95%; % Inhib (Conc 6.25e−007 M, Table 2): 20%; IC50 [5]: < 3.1 µM and 3.7 µM
COC(=O)[C@@H](Cc1ccccc1)Nc1nnc(NC(=O)c2ccc3cccnc3c2O)s1 | – | – | IC50 [4]: 9.4 µM
CCCCCCCCCCCCCCCCCCNC(=O)c1ccc2cccnc2c1O | 20.7 µM | – | –
O=C(Nc1ccc2c(c1)OCO2)c1ccc2cccnc2c1O | – | 16.4 µM | –
Cc1cc(F)ccc1NC(=O)c1ccc2cccnc2c1O | – | 10.2 µM | –
O=C(Nc1cccc(Br)c1)c1ccc2cccnc2c1O | – | 9.2 µM | –
O=C(N[C@H](CO)Cc1ccc(O)cc1)c1ccc2cccnc2c1O | 3.1 µM | – | –
O=C(NC1C2CC3CC(C2)CC1C3)c1ccc2cccnc2c1O (centres unmarked) | 24.3 µM | – | –
CC1CCCC(NC(=O)c2ccc3cccnc3c2O)C1 (centres unmarked) | 20.6 µM | – | –
O=C(Nc1cc(F)c(F)cc1F)c1ccc2cccnc2c1O | – | 27.4 µM | –
C[C@@H](NC(=O)c1ccc2cccnc2c1O)c1ccc(Br)cc1 | 4.6 µM | – | –
O=C(NCCC1=CCCCC1)c1ccc2cccnc2c1O | 21.1 µM | – | –
O=C(NCCc1c[nH]c2ccccc12)c1ccc2cccnc2c1O | 11.1 µM | – | –
O=C(NCc1cc(F)ccc1F)c1ccc2cccnc2c1O | 22.3 µM | – | –
O=C(Nc1ccc(Sc2ccc([N+](=O)[O-])cc2)cc1)c1ccc2cccnc2c1O | – | > 100 µM | –
Cc1ccc(F)cc1NC(=O)c1ccc2cccnc2c1O [drawing 282] | – | 6.6 µM | –
O=C(NCc1ccccc1C(F)(F)F)c1ccc2cccnc2c1O | 15.7 µM | – | –

SMILES | IC50 [2] | IC50 [3] | other results
CCOC(=O)C(Cc1c[nH]c2ccccc12)NC(=O)c1ccc2cccnc2c1O (centres unmarked) | 24.6 µM and 29.4 µM | – | –
CCCCCCCCCNC(=O)c1ccc2cccnc2c1O | 2.2 µM | – | –
N#Cc1c(F)c(F)c(NC(=O)c2ccc3cccnc3c2O)c(F)c1F | – | 18.5 µM | –
Cc1ccccc1NC(=O)c1ccc2cccnc2c1O | – | 13.4 µM | –
O=C(Nc1ccc([N+](=O)[O-])cc1)c1ccc2cccnc2c1O | – | 48.4 µM | –
CC(C)(C)OC(=O)C(Nc1nnc(NC(=O)c2ccc3cccnc3c2O)s1)c1ccc2c(c1)OCO2 (centres unmarked) | – | – | IC50 [4]: 4.3 µM
CC[C@H](C)C(CO)NC(=O)c1ccc2cccnc2c1O (some centres unmarked) | – | – | IC50 (Table 14, read-out: IC50): 26 µM
CCOC(=O)C(Cc1ccccc1)NC(=O)c1ccc2cccnc2c1O (centres unmarked) | – | – | IC50 (Table 14, read-out: IC50): 41 µM
O=C(Nc1ccc2[nH]ccc2c1)c1ccc2cccnc2c1O | – | 13.6 µM | –
CSc1cccc(NC(=O)c2ccc3cccnc3c2O)c1 | – | 25.5 µM | –
CC(C)(C)OC(=O)[C@H](CCCCNC(=O)OCc1ccccc1)Nc1nnc(NC(=O)c2ccc3cccnc3c2O)s1 | – | – | IC50 [4]: < 3.1 µM
O=C(Nc1nnc(NCc2ccc3c(c2)OCO3)s1)c1ccc2cccnc2c1O | – | – | IC50 [4]: 7.1 µM
CSc1ccccc1NC(=O)c1ccc2cccnc2c1O | – | 8.2 µM | –
Cc1cc(Cl)ccc1NC(=O)c1ccc2cccnc2c1O | – | 3.6 µM | –
O=C(NC1CCCCCC1)c1ccc2cccnc2c1O | 23.8 µM | – | –
CC(CNC(=O)c1ccc2cccnc2c1O)c1ccccc1 (centres unmarked) | 14.8 µM | – | –
O=C(N[C@@H](c1ccccc1)[C@H](O)c1ccccc1)c1ccc2cccnc2c1O | 2.2 µM and 4.7 µM | – | –
CC(C)(C)OC(=O)C(Nc1nnc(NC(=O)c2ccc3cccnc3c2O)s1)c1cccc2c1OCO2 (centres unmarked) | – | – | IC50 [4]: 4.7 µM
O=C(Nc1ccccc1-c1ccccc1)c1ccc2cccnc2c1O | – | 4.3 µM | –
O=C(Nc1ccc(F)c(F)c1)c1ccc2cccnc2c1O | – | 82.9 µM | –
CC(C)(C)OC(=O)NCCNc1nnc(NC(=O)c2ccc3cccnc3c2O)s1 | – | – | IC50 [4]: 14.3 µM

SMILES | IC50 [2] | IC50 [3] | other results
O=C(NC1=NC(=O)C(Cc2ccc(Cl)cc2)S1)c1ccc2cccnc2c1O (centres unmarked) | – | – | IC50 (Table 13, read-out: IC50): 1.7 µM
Cc1ccc(NC(=O)c2ccc3cccnc3c2O)c(C)c1 [drawing 223] | – | 22.4 µM | –
COc1ccc(Cl)c(NC(=O)c2ccc3cccnc3c2O)c1 | – | 7 µM | –
CCCCCCCNC(=O)c1ccc2cccnc2c1O | 5.2 µM | – | –
O=C(NCC(O)c1ccccc1)c1ccc2cccnc2c1O (centres unmarked) | 7.8 µM | – | –
O=C(NCc1c(F)cccc1F)c1ccc2cccnc2c1O | 7.1 µM | – | –
Cc1ccccc1CNC(=O)c1ccc2cccnc2c1O | 23.2 µM | – | –
CC(C)(C)C1CCC(NC(=O)c2ccc3cccnc3c2O)CC1 (centres unmarked) | 2.3 µM | – | –
O=C(Nc1cccc(I)c1)c1ccc2cccnc2c1O | – | 5.9 µM | –
O=C(Nc1cc(F)cc(F)c1)c1ccc2cccnc2c1O | – | 26.3 µM | –
O=C(Nc1ccc(Br)cc1F)c1ccc2cccnc2c1O | – | 6.9 µM | –
O=C(NCCc1ccc(Br)cc1)c1ccc2cccnc2c1O | 5 µM | – | –
O=C(NCCNc1ccc([N+](=O)[O-])cn1)c1ccc2cccnc2c1O | – | – | IC50 (Table 14, read-out: IC50): 42 µM
O=C(Nc1ccccc1[N+](=O)[O-])c1ccc2cccnc2c1O | – | > 100 µM | –
O=C(NCC1CCCCC1)c1ccc2cccnc2c1O | 24.2 µM | – | –
C[C@H](NC(=O)c1ccc2cccnc2c1O)[C@H](O)c1ccccc1 | – | – | IC50 (Table 14, read-out: IC50): 41 µM
CC(C)(C)OC(=O)[C@H](Cc1ccc(O)cc1)Nc1nnc(NC(=O)c2ccc3cccnc3c2O)s1 | – | – | IC50 [4]: < 3.1 µM
CC(NC(=O)c1ccc2cccnc2c1O)c1ccc(Br)cc1 (centres unmarked) | 2.6 µM | – | –
O=C(NCCc1ccc(Oc2ccccc2)cc1)c1ccc2cccnc2c1O | 4.5 µM | – | –
O=C(N[C@@H](CO)c1ccccc1)c1ccc2cccnc2c1O | – | – | IC50 (Table 14, read-out: IC50): 19 µM
